For assay [1], the system named is Cricetinae gen. sp. The assay is described as follows: Compound was evaluated for the reduction of liver cholesterol ester levels in the cholesterol-fed Hamster model at 50 mg/kg. Type of assay: functional.
Assay [2] relates to Cricetinae gen. sp. Description: Compound was evaluated for the reduction of liver cholesterol ester levels in the cholesterol-fed Hamster model at 50 mpk. It is filed as functional.
For assay [3], the system named is Cricetinae gen. sp. The assay is described as follows: Compound was evaluated for the reduction of liver cholesterol ester levels in the cholesterol-fed Hamster model. It is filed as functional.
Assay [4] relates to Monkey. The assay is described as follows: Compound was evaluated for the reduction of liver cholesterol ester levels in the cholesterol-fed rhesus monkey model. Type of assay: functional, Cercopithecidae.
For assay [5], the species on record is Rattus norvegicus. Description: Compound was evaluated for the plasma concentration in female rats at 24 hr after post dose. Type of assay: functional, organism-based.
The species named for assay [6] is Rattus norvegicus. The assay is described as follows: Compound was evaluated for the plasma concentration in female rats at 2 hr after post dose. Type of assay: functional, organism-based.
Assay [7] is filed under the species Rattus norvegicus. The assay is described as follows: Compound was evaluated for the plasma concentration in female rats at 8 hr after post dose. Type of assay: functional, organism-based.
Assay [8] is filed under the species Rattus norvegicus. The assay is described as follows: Compound was evaluated for the plasma concentration in female rats at 4 hr after post dose. It is filed as functional, organism-based.
The species entered for assay [9] is Rattus norvegicus. The assay is described as follows: Compound was evaluated for the plasma concentration in female rats at 1 hr after post dose. It is filed as functional, organism-based.

On to `COc1ccc([C@@H]2[C@@H](CCOc3ccc([N+](=O)[O-])cc3)C(=O)N2c2ccccc2)cc1`, for which the Reduction in assay [1] is -31%.

Turning to `COc1ccc(OCC[C@H]2C(=O)N(c3ccccc3)[C@@H]2c2ccc(OC)cc2)cc1`, in [1], the Reduction is given as -82%.

With `COc1ccc([C@@H]2[C@@H](CCOc3ccc(F)cc3F)C(=O)N2c2ccccc2)cc1`, the Reduction in assay [1] is on record as -88%.

Take `COc1ccc([C@@H]2[C@@H](CCOc3ccccc3)C(=O)N2c2ccc(OC)cc2)cc1`: the Reduction in assay [1] is -39%.

Consider `COc1ccc([C@@H]2[C@@H](CCOc3ccc4c(c3)CCC4)C(=O)N2c2ccccc2)cc1` (racemic), for which the Reduction in assay [1] was -46%.

For `COc1ccc([C@@H]2[C@@H](CCOc3ccc(I)cc3)C(=O)N2c2ccccc2)cc1` (racemic), the Reduction in assay [1] is listed as -47%.

Take `COc1ccc([C@@H]2[C@@H](CCOc3ccc(F)cc3)C(=O)N2c2ccc(OC)cc2)cc1` (racemic): the Reduction in [1] was -93%.

Consider `COc1ccc([C@@H]2[C@@H](CCCc3ccccc3)C(=O)N2c2ccc(OC)cc2)cc1` (racemic) [SCH-48461], for which, in assay [2], the Reduction is -78%.

For `COc1ccc([C@@H]2[C@@H](CCOc3ccc(F)cc3)C(=O)N2c2ccccc2)cc1` (stereo in doubt; (+)4), in [1] (50 mg/kg), the Reduction is listed as -28%.

Regarding `COc1ccc([C@@H]2[C@@H](CCOc3ccc(F)cc3)C(=O)N2c2ccccc2)cc1` (stereo in doubt; (+/-)4), in assay [1] (50 mg/kg), the Reduction is -95%.

With `COc1ccc([C@@H]2[C@@H](CCOc3ccc(F)cc3)C(=O)N2c2ccccc2)cc1` (stereo in doubt; (-)4) [listing 1 of 2 here], the 50% effective dose (ED50) in [3] stood at 2.2 mg/kg. The same compound yielded an ED100 in [4] of 0.3 MPK. In addition, the Reduction in assay [1] (50 mg/kg) is recorded as -93%.

With `COc1ccc([C@@H]2[C@@H](CCOc3ccc(F)cc3)C(=O)N2c2ccccc2)cc1` (stereo in doubt; (-)4) [listing 2 of 2 here], the Plasma level in assay [5] was under 30 ng/mL; in assay [6] it was 41.1 ng/mL; in assay [7], 239 ng/mL; in assay [8], under 30 ng/mL; in [9], over 30 ng/mL.

In assay [4], `COc1ccc([C@@H]2[C@@H](CCCc3ccccc3)C(=O)N2c2ccc(OC)cc2)cc1` [SCH-48461] gave an ED100 of 1 MPK.

What is called ED50 is the midpoint of the dose-response relation.

Values taken from ChEMBL document CHEMBL1159185, “Metabolism and structure activity data based drug design: discovery of () SCH 53079 an analog of the potent cholesterol absorption inhibitor () SCH 48461” (1996).
